{"source": "patent US20240425491A1", "about": "“HETEROARYL COMPOUNDS USEFUL IN THE TREATMENT OF COGNITIVE DISORDERS” (University College Cardiff Consultants Limited, priority 2021, published 2024)", "tested_on": "mouse hippocampal brain slices (LTP suppressed by etomidate)", "assay": "Electrophysiology in hippocampal slices - long term potentiation assay"}
{"compound": "CCOC(=O)c1cncn1[C@H](C)c1ccccc1", "note": "[etomidate, reference compound]", "values": [{"measurement": "magnitude of LTP (fEPSP slope as % of control fEPSPs prior to 4-TBS vs time)", "setting": "etomidate 3 μM alone, n=17, FIG. 2A", "result": "reduced"}, {"measurement": "fEPSP slope at 50-60 min post-delivery of the 4-TBS", "setting": "etomidate alone compared to control, FIG. 2B", "result": "significantly reduced fEPSP slope"}]}
